Test results from EP0187355A1, “Process for preparing beta-lactam antibiotics” (E.R. Squibb & Sons, Inc., priority 1981, dated 1982).
Where a name gives a salt, the structure may show the parent alone.

Key:
Assay in all cases: MIC, agar dilution
Assay type in all cases: cell-based
[1] = test system: Enterobacter cloacae, 8236; settings: Enterobacter cloacae, 8236, 18 h, K-10 agar, 10^4 CFU, 37°C
Protocol: (§1) The following methodology is used to determine the minimum inhibitory concentration (hereinafter referred to as MIC) of the […] of this invention.
(§2) The test organisms are grown in approximately 15-20 ml of Antibiotic Assay broth (Difco) by inoculating (in tubes) the broth with a loopful of the organism from a BHI (Difco) agar slant. The inoculated tubes are incubated at 37°C for 18 to 20 hours. These cultures are assumed to contain 10^9 colony forming units (hereinafter CFU) per milliliter. The cultures are diluted 1:100 to give a final inoculum level of 10^4 CFU; dilutions are made with K-10 broth^*.
(§3) The compounds are dissolved in the appropriate diluent at a concentration of 1000 µg/ml. Twofold dilutions are made in K-10 broth resulting in a range from 1000 µg/ml to 0.5 µg/ml. 1.5 ml of each dilution is placed into individual square petri dishes to which 13.5 ml of K-10 agar^** is added. The final drug concentration in the agar ranges from 100 µg/ml to 0.05 µg/ml. Organism growth control plates containing agar only are prepared and inoculated before and after the test plates. The organisms are applied to the agar surface of each plate with the Denley Multipoint Inoculator (which delivers approximately 0.001 ml of each organism) resulting in a final inoculum level of 10^4 CFU on the agar surface.
(§4) The MIC is the lowest concentration of compound inhibiting growth of the organism.
(§5) The number following each organism refers to the number of the organism in the collection of E. R. Squibb & Sons,.Inc., Princeton, New Jersey. […] The symbol "N.T." means not tested.

[2] = test system: Streptococcus agalactiae, 9287; settings: Streptococcus agalactiae, 9287, 18 h, K-10 agar, 10^4 CFU, 37°C, read-out: M.I.C.
Protocol: as §1, §2, §3, §4, §5

Micrococcus luteus, 2495 = settings: Micrococcus luteus, 2495, 18 h, K-10 agar, 10^4 CFU, 37°C, read-out: M.I.C.
Protocol: as §1, §2, §3, §4, §5

[3] = test system: Streptococcus faecalis, 9011; settings: Enterococcus faecalis; Streptococcus faecalis, 9011; K-10 agar, 10^4 CFU, 37°C, 18 hours; read-out: M.I.C.
Protocol: as §1, §2, §3
(§6) The plates are incubated at 37 °C for 18 hours and the MIC's are determined. The MIC is the lowest concentration of compound inhibiting growth of the organism.
(§7) The tables that follow are tabulated results obtained when the B-lactams of this invention are tested against various organisms. The number following each organism refers to the number of the organism in the collection of E. R. Squibb & Sons,.Inc., Princeton, New Jersey. […] The symbol "N.T." means not tested.

Proteus rettgeri, 8479 = settings: Providencia rettgeri, K-10 agar, 10^4 CFU, 37°C, 18 hours, read-out: M.I.C.
Protocol: as §1, §2, §3, §6, §7

Proteus vulgaris, 9416 = settings: K-10 agar, 10^4 CFU, 37°C, 18 hours, read-out: M.I.C.
Protocol: as §1, §2, §3, §6, §7

Proteus mirabilis, 3855 = settings: Proteus mirabilis, 3855, 18 h, K-10 agar, 10^4 CFU, 37°C, read-out: M.I.C.
Protocol: as §1, §2, §3, §6, §7

Escherichia coli, 8294 = settings: Escherichia coli, 8294, 18 h, K-10 agar, 10^4 CFU, 37°C
Protocol: as §1, §2, §3, §6, §7

[4] = test system: Staphylococcus aureus, 10165; settings: Staphylococcus aureus, 10165; K-10 agar, 10^4 CFU, 37°C, 18 hours; read-out: M.I.C.
Protocol: as §1, §2, §3, §6, §7

[5] = test system: Acinetobacter calcoaceticus, 8333; settings: Acinetobacter calcoaceticus, 8333, 18 h, K-10 agar, 10^4 CFU, 37°C, read-out: M.I.C.
Protocol: as §1, §2, §3, §6, §7

[6] = test system: Staphylococcus aureus, 2399; settings: Staphylococcus aureus, 2399, 18 h, Staphylococcus aureus, 2399; K-10 agar, 10^4 CFU, 37°C, 18 hours; read-out: M.I.C.
Protocol: as §1, §2, §3, §6, §7

[7] = test system: Citrobacter freundii, 9518; settings: K-10 agar, 10^4 CFU, 37°C, 18 hours, read-out: M.I.C.
Protocol: as §1, §2, §3, §6, §7

[8] = test system: Klebsiella aerogenes, 10440; settings: K-10 agar, 10^4 CFU, 37°C, 18 hours, read-out: M.I.C.
Protocol: as §1, §2, §3, §6, §7

[9] = test system: Serratia marcescens, 9783; settings: Serratia marcescens, 9783, 18 h, K-10 agar, 10^4 CFU, 37°C, read-out: M.I.C.
Protocol: as §1, §2, §3, §6, §7

[10] = test system: Staphylococcus aureus, 2400; settings: Staphylococcus aureus, 2400; K-10 agar, 10^4 CFU, 37°C, 18 hours; read-out: M.I.C.
Protocol: as §1, §2, §3, §6, §7

Salmonella typhosa, 1195 = settings: Salmonella enterica, TYPHOSA, 18 h, K-10 agar, 10^4 CFU, 37°C
Protocol: as §1, §2, §3, §6, §7

[11] = test system: Pseudomonas aeruginosa, 8329; settings: K-10 agar, 10^4 CFU, 37°C, 18 hours, read-out: M.I.C.
Protocol: as §1, §2, §3, §6, §7

Escherichia coli, 10857 = settings: Escherichia coli, 10857, 18 h, K-10 agar, 10^4 CFU, 37°C
Protocol: as §1, §2, §3, §6, §7

Escherichia coli, 10909 = settings: K-10 agar, 10^4 CFU, 37°C, 18 hours
Protocol: as §1, §2, §3, §6, §7

[12] = test system: Pseudomonas aeruginosa, 9545; settings: Pseudomonas aeruginosa, 9545, 18 h, K-10 agar, 10^4 CFU, 37°C, read-out: M.I.C.
Protocol: as §1, §2, §3, §6, §7

[13] = test system: Klebsiella pneumoniae, 9527; settings: Klebsiella pneumoniae, 9527, 18 h, K-10 agar, 10^4 CFU, 37°C, read-out: M.I.C.
Protocol: as §1, §2, §3, §6, §7

Shigella sonnei, 8449 = settings: Shigella sonnei, 8449, 18 h, K-10 agar, 10^4 CFU, 37°C
Protocol: as §1, §2, §3, §6, §7

[14] = test system: Enterobacter aerogenes, 10078; settings: Klebsiella aerogenes, 10078, 18 h, Enterobacter aerogenes, 10078; K-10 agar, 10^4 CFU, 37°C, 18 hours; read-out: M.I.C.
Protocol: as §1, §2, §3, §6, §7

[15] = test system: Staphylococcus aureus, 1276; settings: Staphylococcus aureus, 1276; K-10 agar, 10^4 CFU, 37°C, 18 hours; read-out: M.I.C.
Protocol: as §1, §2, §3, §6, §7

Escherichia coli, 10896 = settings: K-10 agar, 10^4 CFU, 37°C, 18 hours
Protocol: as §1, §2, §3, §6, §7

Row | Compound | MIC [1] [µg/mL] | MIC [2] [µg/mL] | MIC (Micrococcus luteus, 2495) [µg/mL] | MIC [3] [µg/mL] | MIC (Proteus rettgeri, 8479) [µg/mL] | MIC (Proteus vulgaris, 9416) [µg/mL] | MIC (Proteus mirabilis, 3855) [µg/mL] | MIC (Escherichia coli, 8294) [µg/mL] | MIC [4] [µg/mL] | MIC [5] [µg/mL] | MIC [7] [µg/mL] | MIC [8] [µg/mL] | MIC [9] [µg/mL] | MIC [10] [µg/mL] | MIC (Salmonella typhosa, 1195) [µg/mL] | MIC [11] [µg/mL] | MIC (Escherichia coli, 10857) [µg/mL] | MIC (Escherichia coli, 10909) [µg/mL] | MIC [12] [µg/mL] | MIC [13] [µg/mL] | further results
1 | CCN1CCN(C(=O)N[C@@H](C(=O)N[C@@H]2C(=O)N(S(=O)(=O)O)[C@@H]2C)c2ccccc2)C(=O)C1=O (relative stereo) [Example 22, [3S-[3α(R*),4α]]-3-[[[[(4-ethyl-2,3-dioxo-1-piperazinyl)carbonyl]amino]phenylacetyl]-amino]-4-methyl-2-oxo-1-azetidinesulfonic acid, potassium salt] | 0.8 | 6.3 | 6.3 | > 100 | 0.2 | < 0.05 | 0.4 | 3.1 | 100 | 12.5 | 3.1 | 12.5 | 6.3 | 25 | 0.4 | 12.5 | 0.1 | 0.4 | 6.3 | 0.1 | MIC [6]: 6.3 µg/mL; MIC (Shigella sonnei, 8449): 1.6 µg/mL; MIC [14]: 6.3 µg/mL; MIC [15]: 6.3 µg/mL; MIC (Escherichia coli, 10896): 1.6 µg/mL
2 | C[C@H]1[C@H](NC(=O)C(=O)c2csc(N)n2)C(=O)N1S(=O)(=O)O [Example 27, (3S-trans)-3-[[(2-Amino-4-thiazolyl)oxoacetyl]-amino]-4-methyl-2-oxo-1-azetidinesulfonic acid, potassium salt] | 3.1 | 12.5 | 100 | > 100 | 0.4 | 6.3 | 3.1 | 6.3 | > 100 | > 100 | 3.1 | 6.3 | 3.1 | > 100 | 3.1 | > 100 | 3.1 | 1.6 | 50 | 6.3 | MIC [6]: > 100 µg/mL; MIC (Shigella sonnei, 8449): 3.1 µg/mL; MIC [14]: 6.3 µg/mL; MIC [15]: > 100 µg/mL; MIC (Escherichia coli, 10896): 3.1 µg/mL
3 | C[C@@H]1[C@H](NC(=O)[C@H](NC(=O)N2CCN(N=Cc3ccco3)C2=O)c2ccccc2)C(=O)N1S(=O)(=O)O (relative stereo) [Example 21, [3S-[3α(R*),4α]]-3-[[[[[3-[(2-furanylmethylene)-amino]-2-oxo-1-imidazolidinyl]carbonyl]-amino]phenylacetyl]amino]-4-methyl-2-oxo-1-azetidinesulfonic acid, potassium salt] | 1.6 | 0.4 | 3.1 | > 100 | 1.6 | < 0.05 | 0.8 | 1.6 | 100 | 50 | 1.6 | 1.6 | 3.1 | 6.3 | 0.4 | 12.5 | < 0.05 | 0.2 | 12.5 | 0.2 | MIC [6]: 3.1 µg/mL; MIC (Shigella sonnei, 8449): 0.8 µg/mL; MIC [14]: 3.1 µg/mL; MIC [15]: 3.1 µg/mL; MIC (Escherichia coli, 10896): 0.4 µg/mL
4 | CC1C(NC(=O)C(=NO)c2csc(N)n2)C(=O)N1S(=O)(=O)O (stereo not drawn) [Example 13, [3S-[3α(Z),4β]]-3-[[(2-amino-4-thiazolyl)-(hydroxyimino)acetyl]amino]-4-methyl-2-oxo-1-azetidinesulfonic acid, potassium salt] | 1.6 | 25 | 3.1 | > 100 | 0.1 | 0.8 | 1.6 | 1.6 | 25 | 12.5 | 0.8 | 1.6 | 0.8 | 12.5 | 0.8 | > 100 | 1.6 | 0.8 | 6.3 | 1.6 | MIC (Shigella sonnei, 8449): 1.6 µg/mL; MIC [14]: 3.1 µg/mL; MIC [15]: 25 µg/mL; MIC (Escherichia coli, 10896): 1.6 µg/mL
